According to patent publication US5179082A, “Method for blocking platelet adhesion to collagen” (Merck & Co., Inc., priority 1991, dated 1993):
Like-named read-outs stand apart in the source and are kept apart here. Positions of bridges follow the written chain, without caps; N, C: chain ends. No end group written: not given here.

Assays:
[1] = target: fibrinogen receptor glycoprotein IIb/IIIa
[2] = test system: ADP-stimulated platelet aggregation; assay: Inhibition of ADP-stimulated platelet aggregation; format: cell-based; details: Table 1
[3] = test system: platelet adhesion to collagen; assay: Inhibition of platelet adhesion to collagen-coated microtiter wells; format: cell-based
Method: (§1) Polystyrene 96-well microtiter plates (Costar, Cambridge, MA) are coated with […] per well of […] collagen dissolved in 5 mM acetic acid for 1 hour at room temperature followed by blocking of the non-specific cell binding sites by addition of […] of 10 mg/ml heat-denatured BSA for 1 hour. Control wells are coated with BSA only. The wells are rinsed three times with HEPES buffered saline (HBS) containing 20 mM HEPES, pH 7.4, 0.14 M NaCl, and 2 mM MgCl2. […] of washed platelets are incubated with various concentrations of polypeptide I or buffer as a control for 5 minutes at room temperature and then added to each collagen coated well and incubated at room temperature for 45 minutes. Nonadherent platelets are removed by aspiration, and the wells are rinsed three times with […] of HBS. The number of adhered platelets is determined by protein assay, using the BCA reagent and measuring the absorbance of each well at […].
(§2) Sequence ID Nos. I, II, III, IV and V were evaluated for their ability to block platelet adhesion to collagen using the assay described in Example 2 to determine inhibition of platelet adhesion to collagen. An assay similar to the assay described in Example 2, with the exception that plates are coated with fibrinogen rather than collagen, for determining inhibition of platelet binding to fibrinogen.

[4] = Preliminary in vivo antithrombotic studies
[5] = test system: platelet adhesion to fibrinogen; assay: Inhibition of platelet adhesion to fibrinogen-coated plates; format: cell-based; set-up: Percent Inhibition of Adhesion, Fibrinogen, Extent: dose or concentration left out as unconfirmed; details: for IC50: fibrinogen-coated plates
Method: as §1, §2

Row | Substance | Percent inhibition of adhesion to collagen, Extent (washed platelets) [%] | Percent inhibition of adhesion to fibrinogen, Extent [1] [%] | IC50 [2] [nM] | Inhibition of platelet adhesion to collagen (in words) [3] | Percent Inhibition of Adhesion, Collagen, Extent ([3]; Table 1) [%] | Decrease of control A562 values (adhered platelets) ([3]; concentration dependent, control A562 0.3 to 1.0 O.D.) | Antithrombotic effect in vivo [4] | Percent Inhibition of Adhesion, Fibrinogen, Extent ([5]; Table 1, concentration not given) [%] | IC50 ([5]; Table 1) [nM] | IC50 ([3]; Table 1, collagen-coated wells, washed platelets) [nM] | Specificity for platelet adhesion to collagen (versus fibrinogen) ([3]; comparison of Table 1 values) | Percent Inhibition of Adhesion, Fibrinogen, Extent [5] [%]
1 | polypeptide I (Sequence ID No. 1), synthetic echistatin | 50 | 95 | – | – | – | – | – | – | – | – | – | –
2 | H-ECESGPCCRNCKFLKEGTICKRARGDDMDDYCNGKTCDCPRNPHKGPAT-OH (disulfide 2-11, 7-32, 8-37, 20-39 (inferred)) [Polypeptide I, echistatin] | – | – | 30 | inhibit platelet adhesion to collagen | 50 | up to 50% | very effective antithrombotic agent | 95 | 270 | – | – | –
3 | Polypeptide V: NH2 (Ch) Ala Arg Gly Asp (Cy) Z, Z = NH2; 39 amino acids, terminal amino group at Cys 39 (ECESGPCCRNCKFLKEGTICKRARGDDMDDYCNGKTCDC-NH2; not fully specified (bridges); also: terminal modifications Ch, Cy, terminal amino group at Cys 39) | – | – | 800 | – | 58 | – | – | – | > 8000 | 530 | most specific for platelet adhesion to collagen | 55
